Source: patent US20250002470A1, “NITROGEN-CONTAINING COMPOUND, PREPARATION METHOD THEREFOR AND APPLICATION THEREOF” (ZHEJIANG AIXPLORER BIOTECH CO., LTD., priority 2021, published 2025)

How the values were obtained:
[1] = In vivo pharmacokinetic evaluation in mice (IV and PO); settings: CD-1 mice
Procedure: CD-1 mice, after fasting overnight (free drinking), are divided into tail vein (IV) and gavage administration (PO) groups. The tail vein administration group collected 0.1 mL of blood from the orbital venous plexus before administration and 5 minutes, 15 minutes, 0.5 hours, 1 hour, 2 hours, 4 hours, 8 hours, 12 hours, and 24 hours after administration, and sample centrifugation at 4° C. for 5 minutes, and stored at −70° C. for testing. […] The plasma parent drug concentration was determined by LC-MS/MS.

IL-18 = IL-18 cytokine in LPS-induced sepsis mouse model; type: in vivo, C57BL/6J mice; settings: for IL-18: given 30 minutes before LPS (10 mg/kg i.p.), serum 2 hours after LPS
Procedure: The purpose of this study was to investigate and evaluate the inhibitory effect of the test compound on […] and IL-18 cytokine production in a mouse model of lipopolysaccharide (LPS)-induced sepsis.
6-8 weeks female C57BL/6J mice, randomized, 5 animals in the Naïve group, and the rest of the groups (vehicle group, 15 mg/kg group with embodiment 33 compound, 50 mg/kg group with embodiment 33 compound and 150 mg/kg group with embodiment 33 compound, wherein 15 mg/kg, 50 mg/kg and 150 mg/kg is the dosage of embodiment 33, mg/kg is referred to as mpk) 10 animals per group. Among them, the Naïve group was not stimulated with LPS, and the 10 mice in each group were intraperitoneally injected with LPS (10 mg/kg) to induce sepsis model in the mouse. The vehicle (corresponding to the vehicle group) and the test compound (corresponding to the 15mpk group of Example 33, the 50mpk group of Example 33 and the 150mpk group of Example 33 respectively) were administered 30 minutes before LPS stimulation. 2 hours after LPS stimulation, the mice were euthanized, and whole blood was collected from the heart and placed in EP tubes, left to stand at room temperature for 1 hour, and centrifuged at 8000 rpm for 10 minutes to collect serum for measurement of cytokines IL-10 and IL-18.
After the kit is taken out of the refrigerator, it should be equilibrated at room temperature (25-28° C.) for 20 minutes; the remaining reagents should be stored at 4° C. immediately after each test.
Prepare an appropriate amount of standard diluent: dilute the standard diluent (5×) to 1× with double-distilled or deionized water. For example, add 10 mL of standard diluent (5×) to 40 mL of water and mix well to obtain a 1× standard. Diluent.
Prepare an appropriate amount of washing liquid: Dilute the washing liquid (20×) with double-distilled or deionized water to 1×. For example, add 10 mL of washing liquid (20×) to 190 mL of water and mix well to obtain a 1×washing liquid.
Standard preparation: Add the standard diluent to one bottle of standard according to the volume (0.5 mL) marked on the standard label, incubate at room temperature for 15 minutes, then mix gently and pipet several times with a pipette to completely dissolve the standard. The final concentration of the standard reaches 1500 pg/mL. Take […] 1.5 mL centrifuge tubes, add 250 μL of standard diluent to each tube in advance, and perform dilutions of the standard to obtain a total of 1500, 750, 375, 187.5, 93.75, 46.875, and 23.4375 pg/mL. standard concentration, and finally add the diluted standard to the pre-coated plate wells in sequence, and add the standard diluent directly as a concentration of 0 pg/mL, for a total of 8 standard concentrations. […]

Q: Which results are given for `Cc1nc(N[C@@H]2CCCC[C@H]2O)nnc1-c1ccc(C(F)(F)F)cc1O` [Embodiment 33]?
A: F ([1]; PO, 20 mg/kg): 98.0%; AUC ([1]; mouse, plasma, IV, 3 mg/kg): 4600 ng·h/mL; clearance ([1]; mouse, plasma, IV, 3 mg/kg): 10.9 mL/min/kg; half-life ([1]; mouse, plasma, IV, 3 mg/kg): 4.89 h; Vd ([1]; mouse, plasma, IV, 3 mg/kg, read-out: Vss): 2.6 L/kg; AUC ([1]; mouse, plasma, PO, 20 mg/kg): 30000 ng·h/mL; Cmax ([1]; mouse, plasma, PO, 20 mg/kg): 8520 ng/mL; half-life ([1]; mouse, plasma, PO, 20 mg/kg): 3.6 h; IL-18 (IL-18; 15 mpk): 560.5 ± 46.39; IL-18 (IL-18; 50 mpk): 320.1 ± 29.69; IL-18 (IL-18; 150 mpk): 216.2 ± 9.238; inhibitory effect on IL-18 compared with the Vehicle group (IL-18; two doses of 50 mg/kg and 150 mg/kg): significant inhibitory effect
